Test results published in article PMC8850458, “The AUTOTAC chemical biology platform for targeted protein degradation via the autophagy-lysosome system” (Nature Communications, 2022).
Several values for one entry are separate records, joined by “and”; a condition that tells them apart may be missing. Identical values can stand only once. Like-named read-outs stand apart in the source and are kept apart here.

Columns and labels:
tauP301L = tauP301L (Homo sapiens, UniProt P10636, P618L); assay: In vitro pulldown assay of biotinylated PBA; assay type: binding; conditions: tauP301L stably expressed in SH-SY5Y cells
Sequence of tauP301L (P10636 1-441 isoform P10636-8 P301L): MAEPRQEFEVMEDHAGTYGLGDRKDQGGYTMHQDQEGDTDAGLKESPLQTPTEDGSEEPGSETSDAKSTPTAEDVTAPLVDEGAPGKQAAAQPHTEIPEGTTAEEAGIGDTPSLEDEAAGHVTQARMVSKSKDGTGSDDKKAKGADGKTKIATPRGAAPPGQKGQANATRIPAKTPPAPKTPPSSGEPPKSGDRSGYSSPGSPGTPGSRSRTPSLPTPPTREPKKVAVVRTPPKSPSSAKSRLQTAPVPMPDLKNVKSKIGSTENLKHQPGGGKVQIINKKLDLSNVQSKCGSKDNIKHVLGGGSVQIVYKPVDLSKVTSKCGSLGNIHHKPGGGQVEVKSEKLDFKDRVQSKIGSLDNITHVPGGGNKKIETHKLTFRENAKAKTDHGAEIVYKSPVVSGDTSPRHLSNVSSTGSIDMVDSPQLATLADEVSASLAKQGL
Protocol: A set of synthetic 12-mer peptides corresponding to the N-terminal sequences of the V-BiP (V[19]-[…]-biotin) and V-RGS4 (V^2-[…]-biotin) was C-terminally biotin-conjugated. Alternatively, biotinylated versions of YOK-1304, YT-8-8, YTK-1105, YOK-2204, and PBA were synthesized. To cross-link the above peptides with resin beads, biotin-conjugated peptides, and small molecule were mixed with high-capacity streptavidin agarose resin (Thermo Fisher Scientific) at a ratio of 0.5 mg of peptide per 1 mL of settled resin and incubated on a rotator at 4 °C overnight. After washing five times with PBS, the peptide/small molecule-bead conjugates were diluted with PBS at a 1:1 ratio. To prepare protein extracts, cells were collected by centrifugation and lysed by freezing and thawing at least 10 times in hypotonic buffer [10 mM KCl, 1.5 mM MgCl2, and 10 mM HEPES (pH 7.9)] with a protease inhibitor mix (Sigma). After centrifugation at 15,000 rpm 4 °C for 15 min, proteins were quantified using a BCA protein assay kit (Thermo Fisher Scientific). Total protein (200 μg) diluted in 300 μL of binding buffer [0.05% Tween-20, 10% glycerol, 0.2 M KCl, and 20 mM HEPES (pH 7.9)] were mixed with 50 μL of peptide/small molecule-bead resin and incubated at 4 °C for 2 h on a rotator. The protein-bound beads were collected by centrifugation at 2400 × g for 3 min and washed five times with binding buffer. […]

ACHN cells [1] = assay: Wound healing assay in ACHN cells; assay type: cell-based; conditions: wound healing, compared with p62-binding moiety or TBL
Protocol: To analyze cell migration in two dimensions, U-87 MG or ACHN cells were plated to a monolayer. Cells were scratched with a sterile 10 μl pipette tip and the debris was removed using medium. Cells were treated with compounds and incubated for different time to monitor cell behavior. Photographs were obtained using a microscope at different time point.

ACHN cells [2] = assay: WST-based cell viability assay in ACHN cells; conditions: for WST assay raw reading / WST assay viability relative to con = 100: ACHN, duplicates
[3] = WST-based cell viability assay in ACHN cells; conditions: human, ACHN cells; for viability at 0.01 µM / viability at 0.1 µM / viability at 1 µM / viability at 10 µM / viability at 50 µM / viability at 100 µM: ACHN
[4] = molecular target: T1, estrogen receptor beta (ERβ) (Homo sapiens, UniProt Q92731); assay: Western blot degradation of ERβ; assay type: cell-based; conditions: for ERβ band normalized to control, AVG % / ERβ band (PHTPP) normalized to GAPDH and to control, percentage: 293T; for ERβ band normalized to control, AVG % / ERβ band (PHTPP) normalized to GAPDH and to control, percentage / DC50: 24 h; for ERβ band (PHTPP) normalized to GAPDH and to control, percentage: single experiments
T1 construct: Targeted autophagic degradation of endogenous oncoproteins by AUTOTAC; endogenous in cells; host or cells: HEK293T, ACHN, MCF7
T1 sequence (Q92731 whole entry): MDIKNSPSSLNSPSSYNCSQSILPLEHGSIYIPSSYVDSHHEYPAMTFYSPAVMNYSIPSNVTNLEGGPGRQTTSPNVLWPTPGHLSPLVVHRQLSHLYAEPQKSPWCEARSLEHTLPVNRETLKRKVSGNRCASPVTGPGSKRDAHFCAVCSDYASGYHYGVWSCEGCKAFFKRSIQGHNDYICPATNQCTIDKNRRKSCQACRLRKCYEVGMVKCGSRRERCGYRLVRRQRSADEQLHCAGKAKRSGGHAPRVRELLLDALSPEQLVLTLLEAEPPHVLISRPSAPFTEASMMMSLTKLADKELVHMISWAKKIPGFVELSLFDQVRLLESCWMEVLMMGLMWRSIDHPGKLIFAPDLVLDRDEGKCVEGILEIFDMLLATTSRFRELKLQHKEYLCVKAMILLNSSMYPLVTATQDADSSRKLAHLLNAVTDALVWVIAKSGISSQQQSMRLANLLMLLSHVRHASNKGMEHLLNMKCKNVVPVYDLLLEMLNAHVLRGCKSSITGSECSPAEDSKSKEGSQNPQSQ
Protocol: Adherent cells were washed with phosphate-buffered saline (PBS) and cell pellets were lysed in SDS-based sample buffer (277.8 mM Tris-HCI, pH 6.8, 4.4% LDS, 44.4% (v/v) glycerol) containing beta-mercaptoethanol. Alternatively, cell pellets or protein supernatants were lysed in 5X Laemmli sample buffer. Whole-cell lysates were separated using SDS-PAGE, and transferred onto polyvinyllidene difluoride membranes at 100 V for 2 h at 4 °C. The membrane was incubated with a blocking solution consisting 4% skim milk in PBS solution for 30 min at room temperature and incubated with primary antibodies overnight, followed by incubation with host-specific HRP-conjugated secondary antibodies (1:10000 dilution). For signal detection, the membrane was developed with a mixture of ECL solution (Thermo Fisher Scientific) using X-ray films. Densitometry of developed bands was measured and analyzed with ImageJ (NIH, Bethesda).

[5] = duplicates, read-out: WST assay viability relative to con = 100
[6] = read-out: WST assay viability, AVG %

Question: With `O=C(O)CCCc1ccccc1` [4-PBA, 4-phenylbutyric acid] as the molecule, how does the “binding of tauP301L in pulldown” value (tauP301L) read?
Answer: bound

Question: With `O[C@H](CNCCOCCOCCOc1ccc(-c2c(-c3ccccc3)nn3c(C(F)(F)F)cc(C(F)(F)F)nc23)cc1)COc1ccc(OCc2ccccc2)c(OCCCc2ccccc2)c1` [PHTPP-1304] as the molecule, how does the “inhibition of cell migration” value (ACHN cells [1]) read?
Answer: more efficiently inhibited cell migration

Question: What about the “higher cytotoxicity than p62-binding ligand or TBL” value (ACHN cells [2]; ACHN cells) of the same molecule?
Answer: ~ 5 fold

Question: What about the “WST assay raw reading” value (ACHN cells [2]; 0.01uM) of the same molecule?
Answer: 1.001 and 0.98

Question: What about the “WST assay viability relative to con = 100” value (ACHN cells [2]; 0.01uM) of the same molecule?
Answer: 98.3465

Question: What about the “WST assay raw reading” value (ACHN cells [2]; 0.1uM) of the same molecule?
Answer: 1.009 and 1.004

Question: And the “WST assay viability relative to con = 100” value (ACHN cells [2]; 0.1uM)?
Answer: 101.115

Question: And the “WST assay raw reading” value (ACHN cells [2]; 1uM)?
Answer: 0.961 and 0.962

Question: And the “WST assay viability relative to con = 100” value (ACHN cells [2]; 1uM)?
Answer: 96.2699

Question: What about the “WST assay raw reading” value (ACHN cells [2]; 10uM) of the same molecule?
Answer: 0.146 and 0.145

Question: What about the “WST assay viability relative to con = 100” value (ACHN cells [2]; 10uM) of the same molecule?
Answer: 2.019

Question: What about the “WST assay raw reading” value (ACHN cells [2]; 50uM) of the same molecule?
Answer: 0.234 and 0.222

Question: What about the “WST assay viability relative to con = 100” value (ACHN cells [2]; 50uM) of the same molecule?
Answer: 10.9017

Question: And the “WST assay raw reading” value (ACHN cells [2]; 100uM)?
Answer: 0.256 and 0.273

Question: And the “WST assay viability relative to con = 100” value (ACHN cells [2]; 100uM)?
Answer: 16.7852

Question: What about the viability at 0.01 µM [3, 5] of the same molecule?
Answer: 101%

Question: What about the viability at 0.01 µM [3, 6] of the same molecule?
Answer: 99.6%

Question: And the viability at 0.1 µM [3, 5]?
Answer: 102%

Question: What about the viability at 0.1 µM [3, 6] of the same molecule?
Answer: 101%

Question: And the viability at 1 µM [3, 5]?
Answer: 96.2%

Question: And the viability at 1 µM [3, 6]?
Answer: 96.2%

Question: And the viability at 10 µM [3, 5]?
Answer: 2.13%

Question: What about the viability at 10 µM [3, 6] of the same molecule?
Answer: 2.08%

Question: What about the viability at 50 µM [3, 5] of the same molecule?
Answer: 12.3%

Question: What about the viability at 50 µM [3, 6] of the same molecule?
Answer: 11.6%

Question: What about the viability at 100 µM [3, 5] of the same molecule?
Answer: 14.8%

Question: And the viability at 100 µM [3, 6]?
Answer: 15.8%

Question: And the IC50 ([3]; WST-based viability assay, read-out: cytotoxicity IC50)?
Answer: 3.3 µM

Question: What about the “ERβ band normalized to control, AVG %” value ([4]; 1nM) of the same molecule?
Answer: 52.5102%

Question: And the “ERβ band (PHTPP) normalized to GAPDH and to control, percentage” value (shortened to “ERβ band (PHTPP) normalized … percentage”) ([4]; 1nM)?
Answer: 58.6192% and 52.1272% and 46.7843%

Question: What about the “ERβ band normalized to control, AVG %” value ([4]; 10nM) of the same molecule?
Answer: 17.5552%

Question: What about the “ERβ band (PHTPP) normalized … percentage” value ([4]; 10nM) of the same molecule?
Answer: 19.5411% and 16.0071% and 17.1174%

Question: What about the “ERβ band normalized to control, AVG %” value ([4]; 100nM) of the same molecule?
Answer: 4.912%

Question: What about the “ERβ band (PHTPP) normalized … percentage” value ([4]; 100nM) of the same molecule?
Answer: 9.1943% and 5.039% and 0.5025%

Question: What about the “ERβ band normalized to control, AVG %” value ([4]; 1uM) of the same molecule?
Answer: 9.556%

Question: What about the “ERβ band normalized to control, AVG %” value ([4]; 2.5uM) of the same molecule?
Answer: 4.237%

Question: And the “ERβ band (PHTPP) normalized … percentage” value ([4]; 2.5uM)?
Answer: 4.5765% and 5.279% and 2.856%

Question: What about the DC50 ([4]; ACHN renal carcinoma cells, read-out: DC50 of ERβ) of the same molecule?
Answer: < 0.1 µM

Question: And the “Dmax, 24 hr (concentration of maximal clearance at the 24 h mark) of ERβ” value ([4]; HEK293T cells)?
Answer: 10 to 100 nM

Question: And the DC50 ([4]; HEK293T cells, read-out: DC50 (half-degrading concentration) of ERβ)?
Answer: ~0.002 µM and 0.00148 µM

Question: And the “degradation of ERβ under RNA interference of either p62 or ATG5” value ([4]; HEK293T, 0.1 μM 24 h, siRNA 40 nM 48 h)?
Answer: completely abolished

Question: What about the “persistence of ERβ degradation post-washout” value ([4]; MCF7, MG132 1 μM, compound 500 nM 24 h, then washout) of the same molecule?
Answer: at least 8 h

Question: What about the “DC50 and Dmax values of ERβ degradation” value ([4]; MCF7 cells, proteasomal inhibition (MG132 1 μM, 24 h)) of the same molecule?
Answer: subnanomolar

Question: And the DC50 ([4]; MCF-7 breast cancer cells, read-out: DC50 of ERβ)?
Answer: < 0.1 µM
